Source: publication PMC12188386, “Selective CBP/EP300 Bromodomain Inhibitors: Novel Epigenetic Tools to Counter TNF-α-Driven Inflammation” (JACS Au, 2025)

How the values were obtained:
[1] = target: T1, CBP-BRD (ePL-CBP-BRD in HEK293T cells) (Homo sapiens, UniProt Q92793); test: CBP-BRD InCELL Pulse cellular target engagement; format: cell-based; settings: 1 h compound treatment of HEK293T cells transiently transfected with ePL-CBP-BRD
T1 construct: (residues 1083-1197) was cloned into the pICP-ePL-C vector; expressed in transfected cells; host or cells: HEK293T, transient transfection (vector pICP-ePL-C, DiscoverX 94-4007S)
Description: The CBP-BRD (residues 1083-1197) was cloned into the pICP-ePL-C vector (DiscoverX, 94-4007S) between the EcoRI and XhoI restriction sites using the hexahistidine-CREBBP plasmid as a template. 5x10^5 HEK293T cells were plated on a 6 well plate the day prior to transfection with 1.5 μg ePL-CBP-BRD plasmid using 5 μl FugeneHD (Promega E2311) in 500 μl optiMEM® (Gibco, 31985062) . Proteins were allowed to express for 20 h before cells were trypsinized, washed and resuspended in low -serum medium (DMEM with 5 % FBS). Compounds were serially diluted in DMSO at 100x, pre-diluted to 5x in complete medium (DMEM with 10 % FBS and 1 % P/S), then added to a suspension of 5x10^3 cells, giving a final DMSO concentration of 1 %. Treated cells were incubated for 1 h at 37 °C in an incubator, followed by a heat shock for 3 min at 45 °C and recovery for 3 min at 22 °C using a thermocycler with a ramp rate of 1 °C/s (SimpliAmp, Thermo Fisher). Stab ilized ePL tag was quantified using the InCELL detecti n Kit isc verX as per the manufacturer’s pr t c usin the -10 working detection solution and a 2 h incubation before reading luminescence with a SpectraMax M5 plate reader (Molecular devices). […]

[2] = test system: rmTNF-α-induced cytokines in the popliteal lymph node; test: TNF-α induced inflammation model, cytokines in pLN (LEGENDplex); format: in vivo, mouse; settings: mice, 5 h post-rmTNF-α; for concentrations of IL-1β, MCP-1, IL-1α and IL-6 in the pLN: CAPTISOL solutions s.c. (footpad) and i.p. 90 min after rmTNF-α, vs rmTNF-α + CAPTISOL
Description: C57BL/6 mice were bred in -house or acquired from Charles River Laboratories. Mice were maintained in specific pathogen -free facilities at the Institute for Research in Biomedicine, Bellinzona. Experiments were performed following the Swiss Federal Veterina ry Office guidelines and authorized by the relevant institutional committee of the Cantonal Veterinary (Commissione cantonale per gli esperimenti sugli animali, Ticino) .
TNF-α induced inflammation model
Recombinant Mouse TNF-α (rmTNF-α) (aa 80-235) Protein (Cat# 410-MT-050/CF) was purchased from RnDsystems® and resuspended following instruction into sterile PBS. Mice were anesthetized with isoflurane and 300 ng of rmTNF-α was administered subcutaneously in the footpad (10 µL injection volume), and for the experiments with the CBP/EP300 inhibitors an additional 300 ng of rmTNF-α was also administered intraperitoneally (100 µL injection volume). After 1.5 h, mice were injected with 10 µL of the prepared CAPTISOL […]
foodpad and also intraperitoneally (for i.p. injection, the 10 µL of CAPTISOL solution was diluted to a final volume of 100 µL using PBS). Organs were collected 5 h after TNF-α […]
LEGENDPlexTM assays (Mouse Pro-inflammatory Chemokine Panel and Mouse Inflammation Panel; Biolegend) were performed to monitor cytokine/chemokine expression. Briefly, popliteal LNs were collected and carefully disrupted in […] ice-cold phosphate buffer, minimizing cell rupture. The suspension was centrifuged at 1,500 rpm for 5 min, and the […]
supernatant was c ected. μ supernatant was used f r the pr t c f win the manufacturer’s instructi ns. amp es were ana zed f w c t metr n an rtessa Biosciences), and data was analyzed using LEGENDPlex software (BioLegend).
Popliteal LNs were collected, disrupted with tweezers, and digested for 10 min at 37°C in an enzyme mix composed of DNase I (0.28 mg/mL, Amresco), dispase (1 U/mL, Corning), and collagenase P (0.5 mg/mL, Roche) in calcium- and magnesium-free PBS (PBS-, Sigma-Aldrich) followed by a stop solution composed of 2 mM EDTA (Sigma -Aldrich) and 2% heat-inactivated filter-sterilized fetal calf serum (Thermo Fisher Scientific) in PBS -. […] Where indicated, intracellular staining was performed using Intracellular Fixation and Permeabilization Buffer Set (eBioscience), following the manufacturer’s instructi ns. ead ce s were exc uded u sing Zombie fixable viability dye (Biolegend), and data were analyzed using FlowJo software (TriStar Inc).
In this study, various combinations of the following fluorescence -conjugated antibodies have been used for cell-surface phen t pic stainin : α - α α […]
Data was analysed and graphs prepared using GraphPad Prism. […]

T1 sequence (Q92793 1083-1197): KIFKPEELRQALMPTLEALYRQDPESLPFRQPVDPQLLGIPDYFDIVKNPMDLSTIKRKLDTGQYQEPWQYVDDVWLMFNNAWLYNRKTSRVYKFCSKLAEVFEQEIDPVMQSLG

| SMILES | cellular binding to CBP-BRD (InCELL Pulse) [1] | decrease of IL-6 in the pLN compared to GNE-272 [2] | concentrations of IL-1β, MCP-1, IL-1α and IL-6 in the pLN [2] |
| --- | --- | --- | --- |
| CC(=O)Nc1cc(NC(=O)c2ccco2)cc(C(=O)Nc2cccc3nnc(C)cc23)c1 [Compound 1] | no ligand engagement in cellulo | – | – |
| Cc1cc2c(NC(=O)c3cc(NC(=O)c4ccco4)cc(-c4ccn(C)n4)c3)cccc2nn1 [Compound 2] | significant improvement in terms of cellular target engagement | 4 fold | significant reduction |
| Cc1cc2c(NC(=O)c3cc(NC(=O)[C@H]4CCCO4)cc(-c4ccn(C)n4)c3)cccc2nn1 [Compound 5] | able to engage the target very similarly | 7 fold | significant reduction |
